# Data: patent US7348336B2 (Sanofi-Aventis Deutschland GmbH, priority 2000, dated 2008)
# Structures can show the parent of a compound that is named as a salt. Where two headings read alike, the source gives them in different places.
# Target: T1, IκBα-kinase complex (Homo sapiens, UniProt O14920+O15111)
# T1 construct: endogenous in cells; host or cells: HeLa S3 cell extract, S100 fraction; ammonium sulfate precipitation and Superose-6 size exclusion
# Assay: IkB-Kinase ELISA;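 also: substrate phosphopeptide captured on Protein-A plates, detected with Streptavidin-HRP and TMB absorbance at 450 nm, activity read from a synthetic phosphopeptide standard curve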
# Assay type: biochemical
# [1] = activated IκBα kinase complex from HeLa S3 cell extracts, ELISA, read-out: IkB-kinase IC50
# T1 sequence (O14920 whole entry): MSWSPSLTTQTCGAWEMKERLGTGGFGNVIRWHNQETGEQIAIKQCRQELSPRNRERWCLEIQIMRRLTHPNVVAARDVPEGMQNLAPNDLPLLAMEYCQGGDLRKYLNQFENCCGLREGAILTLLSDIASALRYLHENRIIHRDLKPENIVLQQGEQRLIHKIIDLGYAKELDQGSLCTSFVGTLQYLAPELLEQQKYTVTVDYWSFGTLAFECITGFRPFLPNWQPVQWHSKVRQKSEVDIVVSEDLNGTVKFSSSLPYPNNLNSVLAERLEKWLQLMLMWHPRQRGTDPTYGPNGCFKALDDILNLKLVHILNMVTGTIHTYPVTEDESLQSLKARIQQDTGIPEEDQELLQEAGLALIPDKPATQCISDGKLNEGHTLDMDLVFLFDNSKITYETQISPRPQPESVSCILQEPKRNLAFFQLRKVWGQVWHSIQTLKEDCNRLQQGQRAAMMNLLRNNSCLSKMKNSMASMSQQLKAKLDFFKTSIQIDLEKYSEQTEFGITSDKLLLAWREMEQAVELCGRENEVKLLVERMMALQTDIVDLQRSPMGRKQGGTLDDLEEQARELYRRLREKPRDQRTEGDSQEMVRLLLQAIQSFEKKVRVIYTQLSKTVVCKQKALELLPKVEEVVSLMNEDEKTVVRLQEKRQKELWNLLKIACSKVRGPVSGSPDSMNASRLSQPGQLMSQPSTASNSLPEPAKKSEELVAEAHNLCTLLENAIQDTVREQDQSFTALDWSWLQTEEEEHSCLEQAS
# T1 sequence (O15111 whole entry): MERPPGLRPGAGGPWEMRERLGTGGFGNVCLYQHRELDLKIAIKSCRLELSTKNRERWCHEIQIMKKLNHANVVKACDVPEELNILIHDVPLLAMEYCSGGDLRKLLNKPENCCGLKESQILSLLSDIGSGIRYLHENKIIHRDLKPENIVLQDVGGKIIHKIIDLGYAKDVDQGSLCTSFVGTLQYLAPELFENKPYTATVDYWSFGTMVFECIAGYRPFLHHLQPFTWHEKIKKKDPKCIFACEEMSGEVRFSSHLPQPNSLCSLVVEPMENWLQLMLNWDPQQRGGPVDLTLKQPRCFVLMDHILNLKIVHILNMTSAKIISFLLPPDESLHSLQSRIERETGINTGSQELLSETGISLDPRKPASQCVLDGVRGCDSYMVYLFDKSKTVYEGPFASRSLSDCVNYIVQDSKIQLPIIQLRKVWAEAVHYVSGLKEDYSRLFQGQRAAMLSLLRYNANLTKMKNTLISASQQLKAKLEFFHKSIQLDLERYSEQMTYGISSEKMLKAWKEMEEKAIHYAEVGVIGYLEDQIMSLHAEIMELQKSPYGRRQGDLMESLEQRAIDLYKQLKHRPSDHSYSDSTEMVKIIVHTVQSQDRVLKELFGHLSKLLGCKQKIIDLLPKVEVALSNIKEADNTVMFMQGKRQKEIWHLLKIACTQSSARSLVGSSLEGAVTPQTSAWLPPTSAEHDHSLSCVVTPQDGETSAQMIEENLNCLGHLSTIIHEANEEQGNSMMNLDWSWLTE
# T1 sequence (Q9Y6K9 whole entry partner): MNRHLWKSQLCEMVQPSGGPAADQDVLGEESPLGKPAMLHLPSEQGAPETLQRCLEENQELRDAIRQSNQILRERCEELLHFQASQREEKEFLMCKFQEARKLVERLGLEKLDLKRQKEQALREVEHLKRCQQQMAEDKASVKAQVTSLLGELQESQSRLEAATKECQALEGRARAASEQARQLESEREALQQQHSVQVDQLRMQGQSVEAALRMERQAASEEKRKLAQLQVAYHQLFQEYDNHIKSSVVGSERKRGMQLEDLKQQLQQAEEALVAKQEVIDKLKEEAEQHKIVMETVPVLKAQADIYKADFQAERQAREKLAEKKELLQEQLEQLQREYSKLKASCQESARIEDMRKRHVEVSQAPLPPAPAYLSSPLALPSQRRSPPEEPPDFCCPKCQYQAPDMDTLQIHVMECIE
SMILES,IC50 [1],also measured
O=C1CC[C@@H](C(=O)Nc2cc(Cl)cc3c2[nH]c2cnccc23)N1 [Example 103],310 nM,–
O=C(Cc1ccccn1)Nc1cc(Cl)cc2c1[nH]c1cnccc12 [Example 108],2100 nM,–
"COCC(=O)Nc1cc(Cl)cc2c1[nH]c1cnccc12 [Example 51, trifluoroacetate]",600 nM,–
CC(C)(C)C(=O)Oc1c(Cl)cc2c([nH]c3cnccc32)c1Cl [Example 58],330 nM,–
CC(=O)Oc1c(Cl)cc2c([nH]c3cnccc32)c1Cl [Example 101],1800 nM,–
COc1cc2[nH]c3cnccc3c2cc1Cl [Example 66],700 nM,–
Clc1cc2c([nH]c3cnccc32)c(Cl)c1OCC1CCCCC1 [Example 96],–,IC50 (IkB-kinase IC50): 1300 nM
O=C1CC[C@H](C(=O)Nc2cc(Cl)cc3c2[nH]c2cnccc23)O1 [Example 111],540 nM,–
"COc1ccc2c([nH]c3cnccc32)c1Cl [Example 36, trifluoroacetate]",1400 nM,–
CC(C)COc1c(Cl)cc2c([nH]c3cnccc32)c1Cl [Example 85],200 nM,–
CC(C)(C)C(=O)Nc1cc(Cl)cc2c1[nH]c1cnccc12 [Example 57],4300 nM,–
"Fc1cc2[nH]c3cnccc3c2cc1Cl [Example 40, trifluoroacetate]",2000 nM,–
CC(=O)Oc1ccc2c(c1)[nH]c1c(C)nccc12 [Example 29],40000 nM,–
O=C(Nc1cc(Cl)cc2c1[nH]c1cnccc12)c1ccco1 [Example 75],290 nM,–
O=S(=O)(Nc1cc(Cl)cc2c1[nH]c1cnccc12)c1ccc(F)cc1 [Example 112],930 nM,–
Cc1cc(C(=O)Nc2cc(Cl)cc3c2[nH]c2cnccc23)n(C)n1 [Example 106],600 nM,–
COCOc1c(Cl)cc2c([nH]c3cnccc32)c1Cl [Example 70],360 nM,–
"O=C(Nc1cc(Cl)cc2c1[nH]c1cnccc12)c1ccc(F)c(F)c1 [Example 82, N-(6-Chloro-9H-β-carbolin-8-yl)-3,4-difluoro-benzamide]",150 nM,–
"COc1cccc(C(=O)Nc2cc(Cl)cc3c2[nH]c2cnccc23)c1 [Example 52, 7-chloro-9-(3-methoxybenzoxylamino)-β-carboline trifluoroacetate]",600 nM,–
"O=C(Nc1cc(Cl)cc2c1[nH]c1cnccc12)c1ccc(Cl)nc1 [Example 83, 6-Chloro-N-(6-chloro-9H-β-carbolin-8-yl)-nicotinamide]",60 nM,–
COc1cc2[nH]c3cnccc3c2cc1[N+](=O)[O-] [Example 63],1300 nM,–
Cn1nc(C(C)(C)C)cc1C(=O)Nc1cc(Cl)cc2c1[nH]c1cnccc12 [Example 78],2300 nM,–
"CNc1cc(Cl)cc2c1[nH]c1cnccc12 [Example 43, trifluoroacetate]",1000 nM,–

SMILES,IC50 [1],also measured
O=C(Oc1c(Cl)cc2c([nH]c3cnccc32)c1Cl)N1CCOCC1 [Example 59],3200 nM,–
O=[N+]([O-])c1cc(Cl)cc2c1[nH]c1cnccc12 [Example 14],4000 nM,–
N#Cc1cccc(C(=O)Nc2cc(Cl)cc3c2[nH]c2cnccc23)c1 [Example 72],580 nM,–
CCN(CC)CCOc1c(Cl)cc2c([nH]c3cnccc32)c1Cl [Example 93],1300 nM,–
O=C(Cc1cccs1)Nc1cc(Cl)cc2c1[nH]c1cnccc12 [Example 86],700 nM,–
CCOC(=O)Cn1c2ccc(Cl)cc2c2ccncc21 [Example 18],23000 nM,–
Fc1ccc2c(c1)[nH]c1cnccc12 [Example 31],3300 nM,–
Fc1cc2[nH]c3cnccc3c2cc1Cl [Example 34],1000 nM,–
Brc1ccc2[nH]c3cnccc3c2c1 [Example 1],400 nM,–
COc1ccc(C(=O)Nc2cc(Cl)cc3c2[nH]c2cnccc23)cc1OC [Example 71],3000 nM,–
O=C(Nc1cc(Cl)cc2c1[nH]c1cnccc12)c1ccccc1F [Example 61],940 nM,–
O=C1CC[C@H](C(=O)Nc2cc(Cl)cc3c2[nH]c2cnccc23)N1 [Example 99],90 nM,–
"CC(C)CC(=O)Nc1cc(Cl)cc2c1[nH]c1cnccc12 [Example 55, trifluoroacetate]",800 nM,–
O=C(Nc1cc(Cl)cc2c1[nH]c1cnccc12)c1ccc2c(c1)OCO2 [Example 89],570 nM,–
Cc1oc(C(F)(F)F)cc1C(=O)Nc1cc(Cl)cc2c1[nH]c1cnccc12 [Example 77],4400 nM,–
O=C(N1CCOCC1)n1c2ccc(Br)cc2c2ccncc21 [Example 17],5000 nM,–
O=C1COc2c(Cl)cc3c([nH]c4cnccc43)c2N1 [Example 91],2300 nM,–
Cc1cc(C(=O)Nc2cc(Cl)cc3c2[nH]c2cnccc23)no1 [Example 80],310 nM,–
Cc1nccc2c1[nH]c1cc(OCC(=O)OC(C)(C)C)ccc12 [Example 25],31000 nM,–
O=C(Nc1cc(Cl)cc2c1[nH]c1cnccc12)c1ccccn1 [Example 87],750 nM,–
COc1c(N)cc2c([nH]c3cnccc32)c1Cl [Example 95],1000 nM,–
Cc1nccc2c1[nH]c1cc(OCc3ccccc3)ccc12 [Example 26],12000 nM,–
O=C(COc1ccccc1)Nc1cc(Cl)cc2c1[nH]c1cnccc12 [Example 100],1500 nM,–

SMILES,IC50 [1],also measured
"CN(C)c1cc(Cl)cc2c1[nH]c1cnccc12 [Example 44, trifluoroacetate]",–,IC50 (IkB-kinase IC50): 2000 nM
"CS(=O)(=O)Nc1cc(Cl)cc2c1[nH]c1cnccc12 [Example 45, trifluoroacetate]",8300 nM,–
O=C(Nc1cc(Cl)cc2c1[nH]c1cnccc12)c1ccncc1 [Example 56],270 nM,–
Cn1c2ccc(Br)cc2c2ccncc21 [Example 11],700 nM,–
O=C(Nc1cc(Cl)cc2c1[nH]c1cnccc12)c1cccnc1O [Example 104],1000 nM,–
O=C(COCc1ccccc1)Nc1cc(Cl)cc2c1[nH]c1cnccc12 [Example 90],1400 nM,–
CC(C)(C)c1cc(C(=O)Nc2cc(Cl)cc3c2[nH]c2cnccc23)n(Cc2ccccc2)n1 [Example 107],400 nM,–
COc1cc2[nH]c3c(C)nccc3c2cc1Br [Example 32],4600 nM,–
Nc1cc(Cl)cc2c1[nH]c1cnccc12 [Example 15],800 nM,–
"COc1ccc(C(=O)Nc2cc(Cl)cc3c2[nH]c2cnccc23)cc1 [Example 53, 7-chloro-9-(4-methoxybenzoxylamino)-β-carboline trifluoroacetate]",1400 nM,–
Oc1c(Cl)cc2c([nH]c3cnccc32)c1Cl [Example 38],11000 nM,–
O=C(Nc1c(O)c(Cl)cc2c1[nH]c1cnccc12)c1cccnc1 [Example 115],4600 nM,–
N#Cc1ccc(C(=O)Nc2cc(Cl)cc3c2[nH]c2cnccc23)cc1 [Example 73],400 nM,–
"COc1c(Cl)cc2c([nH]c3cnccc32)c1NC(=O)c1cccnc1 [Example 68, N-(6-Chloro-7-methoxy-9H-β-carbolin-8-yl)-nicotinamide]",160 nM,–
COc1c(Cl)cc2c([nH]c3cnccc32)c1NC(=O)c1ccno1 [Example 119],600 nM,–
Clc1cc2c([nH]c3cnccc32)c(Cl)c1OCC1CC1 [Example 64],110 nM,–
CC(C)Oc1c(Cl)cc2c([nH]c3cnccc32)c1Cl [Example 84],100 nM,–
COc1c([N+](=O)[O-])cc2c([nH]c3cnccc32)c1Cl [Example 94],640 nM,–
Cc1nccc2c1[nH]c1ccc(Br)cc12 [Example 28],11000 nM,–
O=C(Nc1cc(Cl)cc2c1[nH]c1cnccc12)c1ccc(Cl)cc1 [Example 116],1800 nM,–
O=C(Nc1cc(Cl)cc2c1[nH]c1cnccc12)c1ccno1 [Example 79],180 nM,–
COc1c(Cl)cc2c([nH]c3cnccc32)c1NC(=O)c1ccc(Cl)nc1 [Example 118],120 nM,–
CCOc1ccc2c(c1)[nH]c1c(C)nccc12 [Example 27],4500 nM,–

SMILES,IC50 [1],also measured
O=C(Nc1cc(Cl)cc2c1[nH]c1cnccc12)c1ccc(C(F)(F)F)cc1 [Example 74],3800 nM,–
O=C(Nc1cc(Cl)cc2c1[nH]c1cnccc12)c1ccc(Br)cc1 [Example 113],640 nM,–
NC(=O)Cn1c2ccc(Cl)cc2c2ccncc21 [Example 22],15000 nM,–
O=C(Nc1cc(Cl)cc2c1[nH]c1cnccc12)c1cnccn1 [Example 88],280 nM,–
CN(C)CC(=O)Nc1cc(Cl)cc2c1[nH]c1cnccc12 [Example 98],900 nM,–
OCCn1c2ccc(Cl)cc2c2ccncc21 [Example 19],3000 nM,–
Clc1cc(Cl)c2[nH]c3cnccc3c2c1 [Example 9],200 nM,–
"O=C(Nc1cc(Cl)cc2c1[nH]c1cnccc12)c1cccnc1 [Example 60, N-(6-Chloro-9H-β-carbolin-8-yl)-nicotinamide]",52 nM,–
Nc1ccc(C(=O)Nc2cc(Cl)cc3c2[nH]c2cnccc23)cn1 [Example 121],–,"IC50 (IkB-kinase, unit inferred, read-out: IC50): 1700 nM"
COc1c(Cl)cc2c([nH]c3cnccc32)c1N [Example 67],500 nM,–
O=C(Cc1cccnc1)Nc1cc(Cl)cc2c1[nH]c1cnccc12 [Example 97],690 nM,–
"COc1c(Cl)cc2c([nH]c3cnccc32)c1Cl [Example 37, trifluoroacetate]",150 nM,–
O=C(Nc1cc(Cl)cc2c1[nH]c1cnccc12)c1ccccc1F [Example 62],380 nM,–
COc1c(Cl)cc2c([nH]c3cnccc32)c1NC(=O)c1ccc(F)c(F)c1 [Example 120],400 nM,–
Clc1cc2c([nH]c3cnccc32)c(Cl)c1OC1CCCC1 [Example 92],400 nM,–
O=C(Nc1cc(Cl)cc2c1[nH]c1cnccc12)c1cccc(=O)[nH]1 [Example 109],2100 nM,–
Clc1cc2c([nH]c3cnccc32)c(Cl)c1OCC1CC1 [Example 65],100 nM,–
Clc1cc2c([nH]c3cnccc32)c(Cl)c1OCc1ccccc1 [Example 81],250 nM,–
CC(=O)n1c2ccc(Br)cc2c2ccncc21 [Example 2],400 nM,–
O=C(Nc1cc(Cl)cc2c1[nH]c1cnccc12)C1CCCC1 [Example 117],670 nM,–
"CC(=O)N(C)c1cc(Cl)cc2c1[nH]c1cnccc12 [Example 48, trifluoroacetate]",4000 nM,–
CS(=O)(=O)n1c2ccc(Br)cc2c2ccncc21 [Example 10],400 nM,–
